Patent US20230202997A1, “CHROMANOL, QUINONE OR HYDROQUINONE COMPOUNDS FOR TREATMENT OF SEPSIS” (Sulfateq B.V., priority 2020, published 2023)

How the values were obtained:
[1] = system: CLP-induced kidney dysfunction; experiment: CLP sepsis model, serum urea and NGAL as kidney biomarkers; type: in vivo; settings: CLP mice; SUL-138 5 mg/kg s.c. 2 h before and 8 h after surgery; 24 hours
Experimental: To induce sepsis, the standard cecal ligation and puncture (CLP) model was used. Animals were anesthetized by subcutaneous injection of xylazine/ketamine (100/10 mg/kg), followed by administration of buprenorphine (0.1 mg/kg) as analgesic. After confirmation of anesthesia by lack of response to paw pinch and eye reflex, the abdomen was shaved, cleaned, and de-germed using a povidone-iodine solution before a 1-cm midline incision was made. The cecum was ligated with a 6-0 suture at half the distance between distal pole and the base of the cecum and punctured once with a 21-Gauge needle (‘through-and-through’ from mesenteric toward anti-mesenteric direction) which is an accepted model for ‘mid-grade’ sepsis. A small amount of stool (2-3 mm) was then extruded to ensure wound patency. The cecum was repositioned, thereby taking care not to spill fecal material on the wound edges, followed by closure of the abdomen by running sutures to the abdominal musculature and short interrupted sutures to the skin. Next, 1 ml of saline (warmed, 0.9% NaCl s.c.) was administered to compensate for the expected relative volume depletion due to the onset of sepsis. […]
Furthermore, the amount of NGAL and urea were measured in serum.

[2] = system: HUVEC; experiment: LPS-challenged HUVEC respiration (uncoupled state, CCCP); type: cell-based, Human; settings: 10 ug/ml LPS, SUL-138 added one hour prior to LPS
Experimental: Human Umbilical Vein Endothelial cells (HUVEC) were obtained from the RuG/UMCG Endothelial Cell Facility. Primary isolates of umbilical cords were mixed and subsequently cultured on HUVEC culture medium, consisted of RPMI 1640 (Lonza, art.nr. BE12-115F) supplemented with 20% heat-inactivated fetal calf serum (ThermoFisher Scientific, art.nr. 10082147), 2 mM 1-glutamine (Life Technologies art.nr. 25030), 5 U/ml heparin (Leo Pharmaceutical Products), 1% Penicillin/Streptomycin (Sigma-Aldrich art.nr. P4333), and 50 μg/ml EC growth factor supplement from (Sigma-Aldrich, art.nr. E2759).
Primary HUVECs were cultured in 75-cm2 tissue culture flasks (Corning, art.nr. 430720U) at 37° C. under 5% CO2/95% air. HUVECs were used for experiments up to passage 8. Experiments were performed in 6-well (Corning art.nr. 3506) or 96-well culture plates (Corning, art.nr. 3596), at 80% confluency. Cells were stimulated with LPS E. coli 0111:B4 (Sigma-Aldrich, art.nr. L2630) in different concentrations. Cells were detached with trypsin (Sigma-Aldrich, art.nr. 25300054). All compounds were dissolved in Hanks Balanced Salt Solution (Lonza, art.nr. 10-527F).
HUVECs were pre-incubated with SUL-138 in an amount of 10 microgram/ml, which was added one hour prior to LPS-stimulation. Such pre-incubation is the standard in in vitro models.

[3] = system: NO production in RAW264.7 macrophages; experiment: Macrophage NO production (nitrate in conditioned medium), basal and after LPS; type: cell-based, Mouse
Experimental: Mouse macrophage RAW264.7 cells (ATCC #TIB-71) were maintained in DMEM medium containing 10% fetal bovine serum, and 1% Penicillin-Streptomycin solution (Sigma-Aldrich). […] For all experiments, RAW264.7 cells were seeded at 0.5·10^5 cells/cm^2 and allowed to adhere for 24 hours. Cellular production of NO was approximated by measuring nitrate concentrations in culture media using the Measure-IT™ High-Sensitivity Nitrite Assay Kit (#M36051, ThermoFisher) according to manufacturer's instructions. […] Therefore, nitrate concentrations in conditioned media are a good approximate to assess cellular NO production. 50 μl conditioned medium derived from a single 96-wells plate well was used per assay and normalized against protein concentration. All experiments were performed in quadruplicate. LPS induces macrophage NO production by activating iNOS. RAW264.7 macrophages were pre-treated with vehicle (DMSO), BN-80933, SUL-138, or SUL-150 or (all 10 μM) prior to endotoxin (LPS 100 ng/ml) exposure for 24 hours. The nitrate levels in the conditioned medium from LPS exposed RAW264.7 macrophages averaged at 83 pmol/mg protein (˜16-fold increase versus non-exposed RAW264.7 cells, p=0.001).

[4] = system: TNFα mRNA expression; experiment: Endothelial inflammatory activation after endotoxin, TNFα mRNA (Example 5); type: cell-based, Human; settings: HUVEC; 10 μM for 30 min
Experimental: Human Umbilical Cord Endothelial Cells (HUVEC, Lonza CC-2519) were maintained on 1% gelatin-coated culture flasks in RPMI1640 medium containing 20% fetal bovine serum, 2 mM Glutamine (Sigma-Aldrich), 1% Penicillin-Streptomycin solution (Sigma-Aldrich) and 50 μg/ml Bovine Pituitary Extract (Invitrogen). HUVEC were passaged by trypsinization when the cultures reach a confluency of 70%. For all experiments, HUVEC were seeded at 0.6·10^5 cells/cm^2 and allowed to adhere for 24 hours.
HUVEC cells were lysed in triZOL reagens (Invitrogen) and total RNA isolated according to manufacturers' instruction. 1 μg total RNA per sample was reverse transcribed using the FirstAid Reverse Transcription Kit (ThermoFisher). Copy-DNA equivalents of 5 ng total RNA were amplified on a ViiA7 Real-time PCR system (ThermoFisher, Waltham, Mass.) using iTaq Universal SYBR Green Supermix (Bio-Rad, Hercules, Calif.) and primers specific for tumor necrosis factor alpha (TNFα; sense 5′-[…]-3′, antisense 5′-[…]-3′), interleukin 1 beta (IL-1β; sense 5′-[…]-3′, antisense 5′-[…]-3′), interleukin-6 (IL-6; sense 5′-[…]-3′, antisense 5′-[…]-3′) and beta actin (ACTB; sense 5′-[…]-3′, antisense 5′-[…]-3′) as loading control. Amplification was performed for 40 cycles of 95° C. for 30 s, 60° C. for 1 min. Relative mRNA expression was calculated according to the δδCt-method.

Cc1c(C)c2c(c(C)c1O)CC[C@@](C)(C(=O)N1CCN(CCO)CC1)O2 [SUL-138, (S)-(6-hydroxy-2,5,7,8-tetramethylchroman-2-yl)(4-(2-hydroxyethyl)piperazin-1-yl)methanone]
Serum NGAL level [1]: not different from Sham operated animals
Serum urea level [1]: not different from Sham operated animals
uncoupled respiration (CCCP) [2]: almost restores the uncoupled respiration
LPS-induced increase in extracellular nitrate level ([3]; 10 μM pre-treatment, LPS 100 ng/ml for 24 hours): Neither SUL-138 nor SUL-150 strongly suppressed the LPS-induced increase in nitrate production
basal production of extracellular nitrate ([3]; no LPS, 10 μM): Neither BN-80933, SUL-138, nor SUL-150 affected the basal production of extracellular nitrate
LPS-induced mRNA expression of TNFα [4]: precludes the induction of mRNA expression of the pro-inflammatory cytokine TNFα
